# Experimental data as given in patent US20220288057A1, “CONJOINT THERAPY FOR TREATING SEIZURE DISORDERS” (XENON PHARMACEUTICALS INC., priority 2021, published 2022).
# Like-named read-outs stand apart in the source and are kept apart here.
# Tests used:
# [1] = Plasma and brain concentrations in 6 Hz studies (LC-MS/MS); assay type: in vivo, mouse; details: intraperitoneal
# Experimental: Sample Collection and Preparation: Mice were anesthetized by isoflurane inhalation (TECH-018) until they reached a surgical plane of anesthesia. Then a syringe (1 mL syringe with a 22 gauge needle) was inserted under the sternum into the heart (TECH-031). Approximately 0.5 mL of blood was collected, deposited into a K2EDTA tube, and stored on ice. Animals were then euthanized by cervical dislocation (TECH-018). Brains were removed, placed into a pre-weighed vial, and snap frozen on dry ice. At the end of the sample collection, blood was centrifuged at 4000 rpm for 10 minutes at 4° C., and the plasma pipetted into a labeled tube. All samples were stored in a −80° C. freezer until bioanalysis (8 days after sample collection for Studies 3A and 3B; 20 days after sample collection for Study 3C).
# Plasma and Tissue Sample Analysis: Bead mill polypropylene tubes containing weighed brain tissues were thawed at room temperature and 3 mL of homogenization solvent (water:acetonitrile (1:1, v:v)) was added. The tubes were placed in the Bead Mill Homogenizer (Bead Ruptor Elite Model, Omni International) and shaken at a velocity of 3.70 m/s for a single cycle lasting 30 seconds. The homogenized tube was centrifuged at 4000 rpm for 20 minutes, the supernatant was transferred to a 1.5 mL Eppendorf tube, and stored frozen at −80° C. until analysis. All samples including plasma and brain homogenate extracts (including calibration and quality control (QC) samples prepared in K2EDTA rat plasma), were extracted by protein precipitation. […] The samples in the 1.5 mL tubes were vortex mixed and then centrifuged for 20 minutes at 13,000 rpm. Fifty microliters of the supernatant was mixed with 150 μL of water/acetonitrile (1:1) in a 96 well plate which was centrifuged post mixing for 20 minutes at 4000 rpm, and was then ready for analysis by liquid chromatography tandem mass spectrometry (LC-MS/MS).
# Samples were analyzed by a research-grade LC-MS/MS method as follows: […]
# MES assay = details: Barton et al. 2001; cited from earlier work
# [2] = test system: 6 Hz psychomotor seizures in CF-1 mice; assay: Mouse 6 Hz psychomotor seizure assay (34 milliampere, 3 s); assay type: in vivo; details: for Fraction Seizing: Levetiracetam 300 mg/kg IP 1 h alone
# Experimental: It was evaluated whether the combination of both compounds is favorable or unfavorable for efficacy by dosing Compound A and Levetiracetam alone and in combination, each at a dose that produces sub-maximal efficacy on its own. […] Plasma and brain samples were analyzed to gain an understanding of how the combination of Compound A and Levetiracetam may affect pharmacokinetics and pharmacodynamics. […] 6 Hz Psychomotor Seizure Assay: […] The animal was then securely restrained and a pair of electrodes was applied to the eyes (Electro Convulsive Therapy Unit 57800, Ugo Basile). […] Data Processing and Analysis: Statistical data analysis was performed using GraphPad Prism (version 8.2.1). Dose-response data was analyzed using a Kruskal-Wallis test, followed by Dunn's multiple comparisons. […] Dose- and concentration-response curves were generated using the Hill Langmuir equation: […]
# [3] = test system: tonic hindlimb seizure following corneal stimulation in CF-1 mice; assay: Mouse maximal electroshock (MES) assay, 60 Hz 50 mA corneal stimulation; assay type: in vivo
# Experimental: The interaction of Compound A with other ASMs was evaluated after oral dosing in the mouse maximal electroshock (MES) assay to determine whether some combinations were favorable or unfavorable. Efficacy was quantified by calculating the fraction of animals with a tonic hindlimb seizure following corneal stimulation. Compound Preparation: Compound A was initially solubilized in DMSO. This solution was then added into a 0.5% methyl cellulose solution to create a more even and less aggregated compound suspension. Serial dilutions were prepared from the tube with the highest concentration of Compound A and the compound suspensions were further vortexed prior to animal dosing. The final concentration of DMSO was 5%, an amount with no apparent toxicity or neuroprotection in the MES assay. […] Animals: Adult male CF-1 albino mice (25-35 g) purchased from Harlan-Envigo were used. The mice were housed four per cage and had access to filtered water and chow ad libidum, throughout the experiment. MES Assay: Compounds were administered orally by gavage before testing unless indicated otherwise. During MES testing, a 60-Hz alternating current (50 mA) was delivered for 0.2 seconds through corneal electrodes to the mice. A drop of 0.5% Alcaine solution was placed on the eye prior to current delivery. The electrodes were subsequently placed gently onto the eyes of the animal and the electrical shock was initiated by triggering through a foot-pedal activator. The animals were restrained by hand and gently released as the shock was delivered and the seizure commenced. Animals were monitored for hind limb tonic extension as the end point for this test. Statistical analysis: All statistics were calculated using Prism version 7 software (Graphpad Software). The method used for each experiment is indicated in the results section. Concentration-response curves were calculated as best fits to the equation […] where X was the log of plasma concentration. Unless indicated otherwise, bottom was constrained to be 0. Top was constrained to be the value determined experimentally by vehicle control measurements. Compound A Dose Response: […]
compound,measurement,setting,value
"CC[C@@H](C(N)=O)N1CCCC1=O [Levetiracetam, reference compound]",concentration at 1 h,"[1]; CF-1, mouse, brain, 300 mg/kg, Study 3B, Levetiracetam 300 mg/kg IP 1 h alone, read-out: Brain",861 ± 120 µM
same,concentration at 1 h,"[1]; CF-1, mouse, brain, Study 3C, analyte Levetiracetam, 300 mg/kg IP + Compound A 4 mg/kg PO, read-out: Brain",1100 ± 265 µM
same,concentration at 1 h,"[1]; CF-1, mouse, plasma, 300 mg/kg, Study 3B, Levetiracetam 300 mg/kg IP 1 h alone, read-out: Plasma",1500 ± 320 µM
same,concentration at 1 h,"[1]; mouse, brain, 300 mg/kg, Studies 3B+3C combined, Levetiracetam 300 mg/kg IP 1 h alone, read-out: Brain",996 µM
same,concentration at 1 h,"[1]; mouse, brain, 300 mg/kg, Study 3B, Levetiracetam 300 mg/kg IP 1 h alone, read-out: Brain",861 ± 120 µM
same,concentration at 1 h,"[1]; mouse, brain, Studies 3B+3C combined, analyte Levetiracetam, 300 mg/kg IP + Compound A 4 mg/kg PO, read-out: Brain",1050 µM
same,concentration at 1 h,"[1]; mouse, brain, Study 3B, analyte Levetiracetam, 300 mg/kg IP + Compound A 4 mg/kg PO, read-out: Brain",1010 µM
same,concentration at 1 h,"[1]; mouse, brain, Study 3C, analyte Levetiracetam, 300 mg/kg IP + Compound A 4 mg/kg PO, read-out: Brain",1100 µM
same,concentration at 1 h,"[1]; mouse, plasma, 300 mg/kg, Studies 3B+3C combined, Levetiracetam 300 mg/kg IP 1 h alone, read-out: Plasma",1640 µM
same,concentration at 1 h,"[1]; mouse, plasma, 300 mg/kg, Study 3B, Levetiracetam 300 mg/kg IP 1 h alone, read-out: Plasma",1500 ± 320 µM
same,concentration at 1 h,"[1]; mouse, plasma, Studies 3B+3C combined, analyte Levetiracetam, 300 mg/kg IP + Compound A 4 mg/kg PO, read-out: Plasma",1730 µM
same,concentration at 1 h,"[1]; mouse, plasma, Study 3B, analyte Levetiracetam, 300 mg/kg IP + Compound A 4 mg/kg PO, read-out: Plasma",1350 µM
same,concentration at 1 h,"[1]; mouse, plasma, Study 3C, analyte Levetiracetam, 300 mg/kg IP + Compound A 4 mg/kg PO, read-out: Plasma",2160 µM
same,ED50,MES assay,> 500 mg/kg
same,average efficacy in previous experiments,"[2]; Levetiracetam 300 mg/kg IP 1 h, 34 milliampere 6 Hz",35%
same,Fraction Seizing,[2]; Studies 3B+3C combined,14/16
same,Fraction Seizing,[2]; Study 3B,8/8
same,Fraction Seizing,[2]; Study 3C,6/8
same,animals protected from seizing,"[2]; Study 3C, Levetiracetam 300 mg/kg IP alone",2/8
same,fraction of mice without tonic seizures,[3]; Levetiracetam 120 mg/kg IP 2 h,0/6
same,fraction of mice without tonic seizures,[3]; Levetiracetam 150 mg/kg IP 2 h,2/8
"O=C1NC(=O)C(c2ccccc2)(c2ccccc2)N1 [Phenytoin, reference compound]","maximum % seizures of fitted curve, reflecting efficacy of Phenytoin alone",[3]; Phenytoin 2 mg/kg,75%
same,fraction of animals without tonic seizures,[3]; Phenytoin 2 mg/kg IP 2 h alone,6/24
"CCCC(CCC)C(=O)O [Valproic Acid, reference compound]",IC50,"[3]; Mus musculus, ip, read-out: IC50 for Valproic Acid (plasma level, inhibition of tonic seizures)",1.44 mM
same,number of mice without tonic seizures/total,[3]; Vehicle PO + Valproic Acid 56 mg/kg IP 0.5 h,1/7
same,number of mice without tonic seizures/total,[3]; Vehicle PO + Valproic Acid 100 mg/kg IP 0.5 h,5/15
same,number of mice without tonic seizures/total,"[3]; Vehicle+Valproic Acid at 56 mg/kg as printed, comparator of the 30 mg/kg combination",0/8
same,decrease of IC50 for Valproic Acid,[3]; combined with 1 mg/kg Compound A vs alone,2.37 fold
